For three compounds, GI50 and TGI results are on record in PubChem BioAssay (NCI).

Common to all, as to assay: NCI tumour cell line growth inhibition, 48 h
The test system of assay [1] is HOP-62 NSCLC.
Assay [2] relates to HOP-92 NSCLC.
The test system of assay [3] is K-562 leukemia.
The test system of assay [4] is HT29 colon.
The subject of assay [5] is SNB-75 CNS.
For assay [6], the system named is OVCAR-8 ovarian.
Assay [7] relates to MDA-MB-435.
Assay [8] has as its system RPMI-8226 leukemia.
Assay [9] deals with SW-620 colon.
In assay [10] the test system is HCC-2998 colon.

Each structure is given as a SMILES string. Several values for one entry are separate records, joined by “and”; a condition that tells them apart may be missing. Equal entries are not always repeated.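 Values below derive from 48-hour exposures of cells grown in 96-well plates, with endpoints linearly interpolated between the two concentrations bracketing the appropriate inhibition level. GI50 marks 50% less growth. TGI is the concentration that stops growth completely.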

As to `COC(=O)c1ccc(-c2c(C#N)[n+](=O)c3cc(Cl)c(Cl)cc3n2[O-])cc1`, the GI50 was 16.8 µM in assay [1]; 11.1 µM in assay [2]; 5.54 µM in assay [3]; 19.9 µM in [4]; 20.2 µM in assay [5]; 24.3 µM in [6]. Besides, the GI50 in [7] is 17.9 µM; in assay [8], 29.8 µM; in assay [9], 17.8 µM; in assay [10] it was 16.9 µM. Besides, the TGI amounted to 34.8 µM in assay [1]; 34.9 µM in assay [2]; 21.8 µM in assay [3]; 58 µM in assay [4]; 39.8 µM in [5]; 55.6 µM in [6]. Moreover, the TGI in [7] is 37 µM; in [8], 83.4 µM; in [9], 45.4 µM; in assay [10], 37.7 µM.
In the case of `O=C1CCC/C=C\C[C@H]2C=CC(=O)/C2=C/C[C@H](C/C=C\CC(F)(F)F)O1`, the GI50 was 0.333 µM in assay [1]; 1.85 µM in assay [2]; 0.503 µM in assay [3]; 0.352 µM in assay [4]; 0.806 µM in [5]; 0.423 µM in [6]. The GI50 in assay [7] was 0.449 µM; in assay [8], 0.275 µM; in assay [9], 0.508 µM; in assay [10], 0.384 µM. Also, the TGI in assay [1] came to 0.757 µM; in [2], 5.01 µM; in assay [3], 2.6 µM; in [4] it was 0.696 µM; in assay [5], 3.22 µM; in assay [6] it was 1.34 µM. Also, the TGI is 1.42 µM in assay [7], 0.858 µM in assay [8], 2.05 µM in [9] and 0.733 µM in assay [10].
Consider `CSc1nc(NC2OC(COC(C)=O)C(OC(C)=O)C(OC(C)=O)C2OC(C)=O)c(N=CC=Nc2c(NC3OC(COC(C)=O)C(OC(C)=O)C(OC(C)=O)C3OC(C)=O)nc(SC)n(C)c2=O)c(=O)n1C` (centres undefined), for which the GI50 was 21.2 µM in assay [1]; 14.8 µM in assay [2]; more than 50 µM in assay [3]; more than 50 µM in [4]; 8.97 µM in assay [5]; more than 50 µM in assay [6]. In addition, the GI50 in assay [7], in [9] and in [10] was more than 50 µM each time. For the same compound, the TGI in assay [1] was 50 µM and 29.8 µM; in [2], 50 µM and 64.5 µM; in [3], more than 100 µM; in [4], more than 100 µM; in assay [5], 25.4 µM and 24.3 µM; in [6] it was more than 100 µM. The TGI in [7], in assay [8], in [9] and in [10] was more than 100 µM each time.
